Source: PMC5828182, “Inhibition of nuclear factor of activated T cells (NFAT) c3 activation attenuates acute lung injury and pulmonary edema in murine models of sepsis” (Oncotarget, 2018)

What was measured:
[1] = system: mouse models of Alzheimer's disease; conditions: mice; cited from earlier work
diabetic db/db mice = conditions: cited from earlier work
[2] = system: experimental colitis model in mice; conditions: cited from earlier work
[3] = system: islet allografts between BL/6 and C3H/HeN mouse strains; conditions: BL/6 and C3H/HeN mice; cited from earlier work
NFAT = conditions: cited from earlier work
Description: (§1) Research efforts to identify NFAT inhibitors span over the last two decades but so far none of them performed well in the clinical trials.

plaque psoriasis = conditions: cited from earlier work
Description: as §1

calcineurin = conditions: derivative of cyclosporine; cited from earlier work
Description: as §1

[4] = system: NFAT dependent gene expression; conditions: liver allograft patients, after 8–12 months; cited from earlier work
[5] = system: NFATc3−/− and wild type mice, severe CLP sepsis; assay: survival after severe (lethal) CLP; type: in vivo, mouse
Description: Figure 5 NFATc3^−/− mice show improved arterial Oxygen saturation and survival compared to wild type mice (A) NFATc3^−/− and wild type mice (N = 5) were injected with 15 mg/kg LPS i.p and the arterial oxygen saturation was measured using STARR Life Sciences Corp. Pulse Oximeter. (B–C) NFATc3^−/− and wild type mice (N = 5 sham control group; N = 10 CLP group) were subjected to severe CLP, maintained on regular or imipenem monohydrate supplemented water and the survival was monitored over a period of 96 h. A^* p ≤ 0.001 WT-LPS vs. WT-Control; ^** p ≤ 0.01 NFATc3^−/− LPS vs. WT-LPS.
Cecal ligation puncture (CLP) sepsis models were established according to Cuenca et al.. In an anesthetized mouse, the cecum is exposed and ligated below ileo-cecal valve and two perforations were made across the cecum using 21G needle. The cecum is then compressed to express minute amount of fecal material. To establish moderate CLP sepsis the cecum was ligated at less than 1.0 cm from the distal end and for severe sepsis about 2.0 cm of the cecum from distal end was ligated. Pulmonary edema, arterial oxygenation, and inflammation were evaluated in moderate CLP sepsis models. […] LPS (15 mg/kg) or the same volume of normal saline was administered into intraperitoneal cavity of WT or NFATc3^−/− mice and arterial oxygenation was measured by pulse oximetry. […]

Molecule: 11R-VIVIT
- microgliosis and Amyloid β peptide (Aβ) plaque load [1]: attenuated
- albuminuria (diabetic db/db mice): markedly attenuates
- mesangial matrix expansion and podocyte injury (diabetic db/db mice): alleviated
- effect in experimental colitis [2]: protective effect
- immunosuppression in islet allografts [3]: improved immunosuppression

Molecule: COc1cc(C[C@H]2C(=O)OC[C@@H]2Cc2ccc(OC)c(OC)c2)ccc1O [Arctigenin]
- NFAT inhibition (NFAT): variable degree of NFAT inhibition

Molecule: C=C/C=C/C[C@@H](C)[C@@H](O)[C@H]1C(=O)N[C@@H](CC)C(=O)N(C)CC(=O)N(C)[C@@H](CC(C)C)C(=O)N[C@@H](C(C)C)C(=O)N(C)[C@@H](CC(C)C)C(=O)N[C@@H](C)C(=O)N[C@H](C)C(=O)N(C)[C@@H](CC(C)C)C(=O)N(C)[C@@H](CC(C)C)C(=O)N(C)[C@@H](C(C)C)C(=O)N1C [ISA247]
- phase III outcome (plaque psoriasis): did not result in to any commercial products so far
- calcineurin inhibition (calcineurin): more potent and effectively inhibited Calcineurin

Molecule: C=CC[C@@H]1/C=C(\C)C[C@H](C)C[C@H](OC)[C@H]2O[C@@](O)(C(=O)C(=O)N3CCCC[C@H]3C(=O)O[C@H](/C(C)=C/[C@@H]3CC[C@@H](O)[C@H](OC)C3)[C@H](C)[C@@H](O)CC1=O)[C@H](C)C[C@@H]2OC [Tacrolimus]
- NFAT dependent gene expression [4]: increased NFAT dependent gene expression

Molecule: Cc1cc2c(C(C)C)c(O)c(O)c(C=O)c2c(O)c1-c1c(C)cc2c(C(C)C)c(O)c(O)c(C=O)c2c1O [gossypol]
- NFAT inhibition (NFAT): variable degree of NFAT inhibition

Molecule: C[C@@H](O)[C@H]1C(=O)N2C(C(=O)O)=C(SCCN=CN)C[C@H]12 [imipenem, imipenem monohydrate]
- survival ([5]; NFATc3−/− mice, imipenem in drinking water, monitored over 96 h, N = 10 CLP group): 60%
- lethality / survival of WT mice ([5]; WT mice, imipenem (broad-spectrum antibiotic) in drinking water, 96 h): not improved any further

Molecule: O=c1c(O)c(-c2ccc(O)cc2)oc2cc(O)cc(O)c12 [kaempferol]
- NFAT inhibition (NFAT): variable degree of NFAT inhibition
